Test results published in US7078045B2, “Pharmaceutical composition for treatment and prevention of liver fibrosis and cirrhosis” (Sang-Geon Kim, priority 2000, dated 2006).
Where two headings read alike, the source gives them in different places. Marks after values point to notes of the source that are not given here.

What was measured:
NF-κB activation = assay: LPS-inducible NF-κB activation in rat liver (EMSA); assay type: in vivo; conditions: 2 h prior to LPS
Experimental: It is known that NF-κB activation is associated with inflammatory responses. To compare the NF-κB activity in the liver tissue when DDB is administered with that when DDB is not administered, the following test was conducted. SD male rats with weight of about 150 g were used. For one group 7 rats were used. For the control group (vehicle administered) and test group (20 to 100 mg/kg/day of DDB administered), the NF-κB activity in accordance with the treatment of endotoxin (lipopolysaccharide, LPS) was measured by using Electrophoresis Mobility Shift Assay (EMSA).

[1] = test system: NF-κB activation in Raw264.7 cells; assay: LPS-induced NF-κB DNA binding activity in Raw264.7 cells; assay type: cell-based
Experimental: Stimulation of Raw264.7 cells with […] of LPS caused an increase in DNA binding activity of NF-κB after 30 min to 1 h. DDB at the concentrations of 0.1, 0.3 and 1 mM inhibited NF-κB activity in a concentration-dependent manner.

I-κBα degradation = I-κBα degradation after LPS in rats; assay type: in vivo, rat; conditions: LPS 1 μg/kg + DDB 100 mg/kg, 2 h prior to LPS
Experimental: (§1) Translocation of NF-κB to the nucleus was preceded by phosphorylation and proteolytic degradation of the I-κBα subunit. This test was conducted in order to ascertain whether the effect of DDB on NF-κB activation is associated with the inhibition of I-κBα degradation. The level of I-κBα protein was reduced 30 min after the treatment of rats with LPS (1 μg/kg). In contrast, treatment with DDB 2 h prior to LPS treatment attenuated the decrease in I-κBα protein by LPS. Also with RAW264.7 cells, DDB inhibited the degradation of I-κBα protein in a concentration-dependent manner at the concentrations of 0.3 to 1 mM.

[2] = test system: I-κBα degradation in RAW264.7 cells; assay: I-κBα degradation after LPS in RAW264.7 cells; assay type: cell-based
Experimental: as §1

TNF-α production = assay: Plasma TNF-α after LPS in rats (ELISA); assay type: in vivo, rat; conditions: for plasma TNF-α level: LPS 1 μg/kg i.v., 2 h after administration; for % inhibition of LPS-induced plasma TNF-α elevation: Table 6, TNF-α production in plasma
Experimental: (§2) TNF-α is the principal mediator of the responses to LPS and is involved in inflammatory processes. It was determined by ELISA whether the amount of TNF-α released into blood decreases when NF-κB activity was inhibited by DDB. A single dose of LPS treatment (1 μg/kg, i.v.) increased the TNF-α level from 35 to 5160 pg per ml of plasma 2 h after administration. DDB treatment at a dose of 20, 50 or 100 mg/kg prevented the elevation of plasma TNF-α level by LPS, resulting in 1350, 1230 or 690 pg per ml of plasma, respectively. With the RAW264.7 cells, DDB decreased the production of TNF-α by LPS.

[3] = test system: TNF-α production in RAW264.7 cells; assay: TNF-α production by LPS in RAW264.7 cells; assay type: cell-based; conditions: Table 6, TNF-α production; LPS + DDB 1.0 mg/kg as printed
Experimental: as §2

TGF-β mRNA expression = assay: Effect of oltipraz/DDB combinations on TGF-β mRNA expression (quantitative RT-PCR) in DMN-administered animals; assay type: in vivo
From the text: As addressed above, TGF-β is a cytokine that causes hepatic fibrosis and is known to be associated with hepatic fibrosis development.
However, as the DDB to oltipraz ratio increases, the inhibition of TGF-β expression is progressively lost. In the animal group administered with DDB alone, TGF-β expression was not inhibited. Therefore, inhibition of TGF-β expression is considered to be caused by oltipraz. On this ground, the best combination ratio of oltipraz to DDB is 5:1 (Table 9).

[4] = test system: TGF-β expression in RAW264.7 macrophage cells; assay: Inhibition of TGF-β expression in RAW264.7 macrophage cells; assay type: cell-based
[5] = test system: DMN induced hepatic fibrosis; assay: animal or person
From the text: Plasma gamma-glutamyl transpeptidase (gamma-GT) activity and bilirubin content are used as indicators of hepatic functionality.
Each value is represented by the average ± standard deviation. The number of animals used ranged from 8 to 16. The significance of each group was indicated by the Newman-Keuls test of multiple analysis. The significance markers are: *=p<0.05 compared to control, #=p<0.05 compared to DMN treated group.
The anti-fibrotic activity of the oltipraz/DDB combination was evaluated by changing the component ratio of the combination. To evaluate the effect of the combination according to the component ratio, the dosage schedule of DMN was partially modified. That is, while DMN was administered to a rat 12 times totally in dosages of 10 μl/kg per administration over a 4-week period, 3 times a week in the test examples 1 and 2, to evaluate the effect of the combination according to the component ratio, an animal model with reduced liver damage was used wherein DMN was administered to a rat 9 times totally in dosages of 10 μl/kg per administration over a 3-week period, 3 times a week, and then not administered in the remaining one week in the test example.

[6] = test system: DMN induced hepatic fibrosis; conditions: 3 times a week; for Fibrosis Values: score 0-4
Experimental: The degree of fibrosis was determined by evaluating the fibrosis and Knodell scores, which show degrees of liver damage and fibrosis.
Each value is represented by the average ± standard deviation. The number of animals used was 8 to 16. The significance of each group is determined by the Newman-Keuls test of multiple analysis. *p<0.05, **p<0.01. Degree of fibrosis 0=Normal, 1=Presence of weak fibrous tissue, 2=Moderate presence of fibrous tissue, 3=Obvious presence of fibrous tissue, 4=Evidence of severe fibrosis. Sum of values from periportal bridging (Greatest=10), intralobular cell loss (Greatest=4), portal inflammation (Greatest=4), and fibrosis (Greatest=4) yields the Knodell score.

TGF-β 1 mRNA expression = conditions: liver tissue; 100 mg/kg oltipraz given 18 hours after DMN, observed 24 hours later
[7] = plasma, DMN 4 weeks + Oltipraz 50 mg/kg
[8] = DMN 4 weeks + Oltipraz 5 mg/kg oral
[9] = DMN 4 weeks + Oltipraz 15 mg/kg oral
[10] = DMN 4 weeks + Oltipraz 50 mg/kg oral

Compound: COC(=O)c1cc(OC)c2c(c1-c1c(C(=O)OC)cc(OC)c3c1OCO3)OCO2 [DDB, dimethyl-4,4′-dimethoxy-5,6,5′,6′-dimethylene dioxybiphenyl-2,2′-dicarboxylate]
- % inhibition of NF-κB activation (NF-κB activation; LPS 1 μg/kg + DDB 20 mg/kg): 42%
- % inhibition of NF-κB activation (NF-κB activation; LPS 1 μg/kg + DDB 50 mg/kg): 63%
- % inhibition of NF-κB activation (NF-κB activation; LPS 1 μg/kg + DDB 100 mg/kg): 73%
- % inhibition of NF-κB activation ([1]; LPS 1 μg/ml + DDB 0.1 mM): 33%
- % inhibition of NF-κB activation ([1]; LPS 1 μg/ml + DDB 0.3 mM): 35%
- % inhibition of NF-κB activation ([1]; LPS 1 μg/ml + DDB 1.0 mM): 65%
- % inhibition of I-κBα degradation (I-κBα degradation): 67%
- % inhibition of I-κBα degradation ([2]; LPS 1 μg/ml + DDB 0.1 mM): 22%
- % inhibition of I-κBα degradation ([2]; LPS 1 μg/ml + DDB 0.3 mM): 34%
- % inhibition of I-κBα degradation ([2]; LPS 1 μg/ml + DDB 1.0 mM): 65%
- plasma TNF-α level (TNF-α production; DDB 20 mg/kg): 1350 pg per ml of plasma
- plasma TNF-α level (TNF-α production; DDB 50 mg/kg): 1230 pg per ml of plasma
- plasma TNF-α level (TNF-α production; DDB 100 mg/kg): 690 pg per ml of plasma
- % inhibition of LPS-induced plasma TNF-α elevation (TNF-α production; LPS 1 μg/kg + DDB 20 mg/kg): 74%
- % inhibition of LPS-induced plasma TNF-α elevation (TNF-α production; LPS 1 μg/kg + DDB 50 mg/kg): 76%
- % inhibition of LPS-induced plasma TNF-α elevation (TNF-α production; LPS 1 μg/kg + DDB 100 mg/kg): 87%
- % inhibition of TNF-α production [3]: 65%
- % Inhibition of TGF-β mRNA expression (TGF-β mRNA expression; DMN + DDB 30 mg/kg): 0%
- TGF-β expression (result in words) (TGF-β mRNA expression; DMN + DDB alone): not inhibited

Compound: O=C(O)CN(CCOCCOCCN(CC(=O)O)CC(=O)O)CC(=O)O [EGTA]
- TGF-β Inhibition Percentage (%) ([4]; EGTA 1 mM): 80%

Compound: O=c1c(-c2ccc(O)cc2)coc2cc(O)cc(O)c12 [Genistein, genistein]
- inhibition at 100 µM ([4]; Mus musculus, Genistein 100 μM, read-out: TGF-β Inhibition Percentage (%)): 80%

Compound: Cc1c(-c2cnccn2)ssc1=S [Oltipraz, 5-(2-pyrazinyl)-4-methyl-1,2-dithiol-3-thione]
- inhibition percentage of ALT increase by DMN ([5]; 50 mg/kg of oltipraz administered alone (stated in Test Example 7)): 40%
- inhibition at 50 mg/kg ([5]; Rattus norvegicus, read-out: inhibition of plasma bilirubin increase): 65%
- ALT [5, 7]: 116 ± 4^#
- AST [5, 7]: 246 ± 32^#
- Bilirubin [5, 7]: 0.3 ± 0.03^#
- gamma-GT [5, 7]: 2.6 ± 0.5^#
- Knodell Values [6, 8]: 11.1 ± 1.7*
- Fibrosis Values [6, 8]: 3.1 ± 0.4*
- Knodell Values [6, 9]: 12.1 ± 1.9*
- Fibrosis Values [6, 9]: 2.9 ± 0.8*
- Knodell Values [6, 10]: 8.0 ± 1.6**
- Fibrosis Values [6, 10]: 2.5 ± 0.9**
- inhibition at 30 µM ([4]; Mus musculus, Oltipraz 30 μM, read-out: TGF-β Inhibition Percentage (%)): 30%
- inhibition at 100 µM ([4]; Mus musculus, Oltipraz 100 μM, read-out: TGF-β Inhibition Percentage (%)): 60%
- TGF-β expression (result in words) (TGF-β mRNA expression; DMN + 30 mg/kg of oltipraz): completely inhibited
- % Inhibition of TGF-β mRNA expression (TGF-β mRNA expression; DMN + oltipraz 30 mg/kg): 65%
- DMN induced expression of TGF-β 1 mRNA (TGF-β 1 mRNA expression): completely inhibited
